Patent US6403826B1, “Corrosion-inhibiting coating composition for metals” (Ciba Specialty Chemicals Corporation, priority 1996, dated 2002)

Tests used:
[1] = Humidity test ASTM D 4585-87, 330 hours, of acrylic dispersion coating (Maincote HG-54) with corrosion inhibitor; corrosion protection factor CPF; settings: humidity test 330 hours, coat thickness 45 to 50 μm; for CPF film / CPF metal: maximum 6 points, greater = better; for CPF: sum of film and metal, maximum 12 points
Description: (§1) In order to prepare the coating formulation (acrylic dispersion based on Maincote HG-54), components 1 to 8 (formulation without amine salt) and components 1 to 9 (formulation comprising an amine salt) are employed in the sequence stated (see Table 1).
(§2) Components 1 to 8 or 1 to 9 are dispersed using a high-speed stirrer at 3000 revolutions/minute to a degree of ground fineness or ground particulate nature of <15 μm. The outcome of dispersing the pigment paste thus obtained is assessed by determining the grindometer value (ISO 1524).The amount of the novel salts employed is based on the overall solids content of the formulation without salt (overall solids content 47%). Accordingly, an addition of, say, 1.0% of amine salt to 100 g of dispersion denotes, for example, an amount of 0.47 g. To complete the coating formulation, components 10 to 16 of Table 1 are added at a reduced stirring speed (1000 revolutions/minute) in the stated sequence. Subsequently, the pH of the formulation is checked and, if appropriate, is adjusted prior to application to a value of from 8 to 8.5 using ammonia solution (25% strength).
[…] Drying conditions: 10 days at room temperature.
(§3) Prior to the beginning of weathering, the “coating films” undergo defined damage in the form of a parallel cut (i.e. parallel to the longest panel edge) using a Bonder cross-cut instrument (Mod. 205; manufactured and sold by Lau, 5870 Hemer/Germany). The panel edges are protected by applying an edge protector (Icosit® 255; manufactured by Inertol AG, Winterthur/Switzerland).
(§4) The samples are subsequently subjected to accelerated weathering in a salt spray test in accordance with DIN 50 021 SS for 168 hours (Table 2) or to a humidity test in accordance with ASTM D 4585-87 for 330 hours (Table 3). The assessment of the results is based on the relevant DIN standards in accordance with an evaluation key, by the indication of a corrosion protection value CPF (Corrosion Protection Factor). The CPF is an additive term composed of an assessment of the coating (film) and an assessment of visible underfilm corrosion and appearance of the metal surface, and has a maximum of 12 points. The individual maximum values are 6 points each. The greater the CPF, the better the protection against corrosion.

[2] = Salt spray test DIN 50 021 SS, 168 hours, of acrylic dispersion coating (Maincote HG-54) with corrosion inhibitor; corrosion protection factor CPF; settings: salt spray 168 hours, coat thickness 50 to 55 μm; for CPF film / CPF metal: 1% inhibitor on overall solids content, maximum 6 points, greater = better; for CPF: 1% inhibitor, sum of film and metal, maximum 12 points
Description: as §1, §2
(§5) The coating formulations are applied to steel panels (19×10.5 cm) of the Bonder type (cold-rolled degreased steel; manufactured by Chemetall, Frankfurt am Main/Germany) in a coat thickness which after drying amounts to 50-55 μm. Drying conditions: 10 days at room temperature.
as §3, §4

[3] = Wet adhesion of the coating formulation, DIN 53 151 crosshatch cut and tape tearoff test, after the humidity test; settings: after humidity test 330 hours, scale Gt 0 (completely intact adhesion) to Gt 5 (inadequate adhesion)
Description: as §5
(§6) As additional assessment criteria, the “subfilm migration in the wet state” (cathodic delamination) along the artificial damage side is determined, after the end of the salt spray test, in accordance with DIN 53 167. […] After the end of the humidity test, the wet adhesion of the coating formulation is determined in accordance with DIN 53 151 by making a crosshatch cut followed by the tape tearoff test. According to DIN 53 151 (scale from Gt 0 to Gt 5) a crosshatch value of Gt 0 corresponds to completely intact adhesion of the coating film, whereas Gt 5 corresponds to inadequate adhesion.

[4] = Subfilm migration in the wet state (cathodic delamination) along the artificial damage, DIN 53 167, after the salt spray test; settings: 1% inhibitor; after salt spray 168 hours; coat thickness 50 to 55 μm; lesser = more effective
Description: as §5, §3, §6

[5] = 1% inhibitor on overall solids content
[6] = 2% inhibitor on overall solids content

Row | SMILES | CPF film [1, 5] | CPF metal [1, 5] | CPF ([1]; 1% inhibitor) | CPF film [1, 6] | CPF metal [1, 6] | CPF ([1]; 2% inhibitor) | CPF film [2] | CPF metal [2] | CPF [2] | Wet adhesion (Gt value) ([3]; 1% inhibitor) [Gt] | Wet adhesion (Gt value) ([3]; 2% inhibitor) [Gt] | Cathodic delamination (mm total) [4] [mm]
1 | CCCCCCCCCCCCCCN(CP(=O)(O)O)CP(=O)(O)O.CCN1CCOCC1.CCN1CCOCC1 [Example 6, n-Tetradecylaminobismethylenephosphonic Acid, Salt with Two Equivalents of N-ethylmorpholine] | 4.6 | 5.0 | 9.6 | 5.2 | 4.5 | 9.7 | 5.4 | 5.0 | 10.2 | 0 | 0 | 18
2 | CCCCCCCCN(CCCCCCCC)CP(=O)(O)O.CCN1CCOCC1.CCN1CCOCC1 [Example 3, Dioctylaminomethylenephosphonic Acid, Salt with Two Equivalents of N-ethylmorpholine] | – | – | – | – | – | – | 4.0 | 4.0 | 8.0 | – | – | 16
3 | CCCCCCCCCCN(CP(=O)(O)O)CP(=O)(O)O.OCCN(CCO)CCO.OCCN(CCO)CCO [Example 17, n-Decylaminobismethylenephosphonic Acid, Salt with Two Equivalents of Triethanolamine] | – | – | – | – | – | – | 5.4 | 5.5 | 10.9 | – | – | 16
4 | CCCCCCN(CCCCCC)CP(=O)(O)O.CCN1CCOCC1.CCN1CCOCC1 [Example 2, Dihexylaminomethylenephosphonic Acid, Salt with Two Equivalents of N-ethylmorpholine] | 4.0 | 4.0 | 8.0 | – | – | – | 4.2 | 5.2 | 9.4 | 0 | – | 14
5 | CCCCCCCCCCCCN(CP(=O)(O)O)CP(=O)(O)O.CCN1CCOCC1.CCN1CCOCC1 [Example 7, n-Dodecylaminobismethylenephosphonic Acid, Salt with Two Equivalents of N-ethylmorpholine] | 5.2 | 3.0 | 8.2 | 6.0 | 4.5 | 10.5 | 5.4 | 5.6 | 11.0 | 0 | 0 | 16
6 | CCCCC(CC)CN(CP(=O)(O)O)CP(=O)(O)O.CCN1CCOCC1.CCN1CCOCC1 (stereo not shown) [Example 4, 2-Ethylhexylaminobismethylenephosphonic Acid, Salt with Two Equivalents N-ethylmorpholine] | 4.0 | 2.6 | 6.6 | 5.0 | 4.8 | 9.8 | 5.0 | 5.0 | 10.0 | 0 | 0 | 22
